Experimental data taken from ChEMBL document CHEMBL1201862, “PubChem BioAssay data set” (2004).
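Exposure lasted 48 hours, with cells grown in 96-well plates and compounds tested at five concentrations. The concentration for 50% growth inhibition is given as GI50.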 Calls of active or inactive are those of the source. Cut-off read from the data, not from the text of the source: active = GI50 up to about 1.1 µM and inactive = higher.

Key:
Assay in all cases: DTP human tumour cell line panel, 48 h
EKVX = test system: EKVX
KM12 = test system: KM12
M14 = test system: M14
NCI-H23 = test system: NCI-H23
NCI-H522 = test system: NCI-H522
OVCAR-5 = test system: OVCAR-5
RXF 393 = test system: RXF 393
SF-268 = test system: SF-268
SK-MEL-28 = test system: SK-MEL-28
SNB-75 = test system: SNB-75
SR = test system: SR
U-251 = test system: U-251
UACC-62 = test system: UACC-62
UO-31 = test system: UO-31
HOP-62 = test system: HOP-62
OVCAR-4 = test system: OVCAR-4
A498 = test system: A498
CCRF-CEM = test system: CCRF-CEM
K562 = test system: K562

SMILES | GI50 (EKVX) | GI50 (KM12) | GI50 (M14) | GI50 (NCI-H23) | GI50 (NCI-H522) | GI50 (OVCAR-5) | GI50 (RXF 393) | GI50 (SF-268) | GI50 (SK-MEL-28) | GI50 (SNB-75) | GI50 (SR) | GI50 (U-251) | GI50 (UACC-62) | GI50 (UO-31) | GI50 (HOP-62) | GI50 (OVCAR-4) | GI50 (A498) | GI50 (CCRF-CEM) | GI50 (K562)
COc1cc2c3c(c1OC)C1(C=CC(=O)C=C1)C[C@H]3N(C)CC2 [PRONUCIFERINE] | > 100 µM (inactive) | > 100 µM (inactive) | > 100 µM (inactive) | > 100 µM (inactive) | 74.3 µM (inactive) | > 100 µM (inactive) | 26 µM (inactive) | > 100 µM (inactive) | > 100 µM (inactive) | > 100 µM (inactive) | > 100 µM (inactive) | > 100 µM (inactive) | > 100 µM (inactive) | > 100 µM (inactive) |  |  |  |  | 
O=C(O)c1oc2ccc([N+](=O)[O-])c3c2c1CCC3 | > 100 µM (inactive) | > 100 µM (inactive) | > 100 µM (inactive) | > 100 µM (inactive) | > 100 µM (inactive) | > 100 µM (inactive) | > 100 µM (inactive) | 74.3 µM (inactive) | > 100 µM (inactive) | 67.6 µM (inactive) |  | > 100 µM (inactive) |  | > 100 µM (inactive) | > 100 µM (inactive) | > 100 µM (inactive) |  |  | 
C[N+]1(C)C/C(=C\c2ccccc2)C(=O)/C(=C/c2ccccc2)C1 | < 0.01 µM (active) | > 100 µM (inactive) | > 100 µM (inactive) | > 100 µM (inactive) |  | > 100 µM (inactive) | > 100 µM (inactive) | > 100 µM (inactive) | > 100 µM (inactive) | > 100 µM (inactive) | 63 µM (inactive) | 31.4 µM (inactive) |  | > 100 µM (inactive) | > 100 µM (inactive) | > 100 µM (inactive) | > 100 µM (inactive) | 49 µM (inactive) | 62.2 µM (inactive)
O=C(Nc1nc2ncn(CC(COc3ccccc3)OC(=O)c3ccccc3)c2c(=O)[nH]1)c1ccccc1 (centres undefined) | > 100 µM (inactive) | > 100 µM (inactive) | > 100 µM (inactive) |  | > 100 µM (inactive) | > 100 µM (inactive) | > 100 µM (inactive) |  | > 100 µM (inactive) | > 100 µM (inactive) | 58.5 µM (inactive) | > 100 µM (inactive) | > 100 µM (inactive) | > 100 µM (inactive) | > 100 µM (inactive) | > 100 µM (inactive) | > 100 µM (inactive) |  | > 100 µM (inactive)
COc1ccc2c3c(c(C(=O)O)oc13)CCC2 | > 100 µM (inactive) | > 100 µM (inactive) | > 100 µM (inactive) | > 100 µM (inactive) | > 100 µM (inactive) | > 100 µM (inactive) | > 100 µM (inactive) | > 100 µM (inactive) | > 100 µM (inactive) | 29.1 µM (inactive) | > 100 µM (inactive) | > 100 µM (inactive) | > 100 µM (inactive) | 40.7 µM (inactive) | > 100 µM (inactive) | > 100 µM (inactive) |  | > 100 µM (inactive) | > 100 µM (inactive)
CSC1(C)CC2C(CC1N1CCCCC1)C2(C)C (centres undefined) |  | > 100 µM (inactive) | > 100 µM (inactive) | > 100 µM (inactive) |  | > 100 µM (inactive) |  | > 100 µM (inactive) | > 100 µM (inactive) | > 100 µM (inactive) |  | > 100 µM (inactive) |  | > 100 µM (inactive) |  | > 100 µM (inactive) |  | > 100 µM (inactive) | > 100 µM (inactive)
O=C(c1ccc(Cl)cc1)N(C(=S)N1CCN(c2ccccc2)CC1)c1ccccc1 |  | > 100 µM (inactive) | > 100 µM (inactive) | > 100 µM (inactive) | > 100 µM (inactive) | > 100 µM (inactive) | > 100 µM (inactive) | > 100 µM (inactive) | > 100 µM (inactive) | > 100 µM (inactive) | > 100 µM (inactive) | > 100 µM (inactive) | > 100 µM (inactive) | > 100 µM (inactive) | > 100 µM (inactive) | > 100 µM (inactive) |  | > 100 µM (inactive) | > 100 µM (inactive)
COc1cc(Br)c(/C=N\c2cccc3cc(OC)c(OC)cc23)cc1OC | 50.2 µM (inactive) | 28.8 µM (inactive) | 30 µM (inactive) | 39.7 µM (inactive) | > 100 µM (inactive) | > 100 µM (inactive) | 20.2 µM (inactive) | 45.4 µM (inactive) | 88.3 µM (inactive) | 16.8 µM (inactive) | 15.5 µM (inactive) | 42.5 µM (inactive) | 26 µM (inactive) | 27.9 µM (inactive) | > 100 µM (inactive) | 91.8 µM (inactive) |  | 17.8 µM (inactive) | 19.9 µM (inactive)
O=C(CC(=O)C(=O)CC(=O)OCc1ccccc1)OCc1ccccc1 | > 100 µM (inactive) |  | > 100 µM (inactive) | 53.2 µM (inactive) | 31.3 µM (inactive) | > 100 µM (inactive) | 75 µM (inactive) | 32.3 µM (inactive) | 67.6 µM (inactive) | 61.5 µM (inactive) | 70.8 µM (inactive) | 50.9 µM (inactive) | 84.9 µM (inactive) | 27.3 µM (inactive) | 56.2 µM (inactive) | 50.5 µM (inactive) | > 100 µM (inactive) | 49.2 µM (inactive) | 58.6 µM (inactive)
CC(=O)OCC1OC(NC(=S)N/N=C2\CC(c3ccccc3)Oc3ccccc32)C(OC(C)=O)C(OC(C)=O)C1OC(C)=O (centres undefined) | > 100 µM (inactive) | > 100 µM (inactive) | > 100 µM (inactive) | > 100 µM (inactive) | > 100 µM (inactive) | > 100 µM (inactive) | > 100 µM (inactive) | > 100 µM (inactive) |  | > 100 µM (inactive) | > 100 µM (inactive) | > 100 µM (inactive) | > 100 µM (inactive) | > 100 µM (inactive) | > 100 µM (inactive) | > 100 µM (inactive) | > 100 µM (inactive) | > 100 µM (inactive) | > 100 µM (inactive)
COC(=O)C1(C(C)C)CCc2c(OC)ccc(OC)c2C1=O (centres undefined) | 75.2 µM (inactive) | > 100 µM (inactive) | > 100 µM (inactive) |  | > 100 µM (inactive) | > 100 µM (inactive) |  | > 100 µM (inactive) | > 100 µM (inactive) |  |  | > 100 µM (inactive) | 79.8 µM (inactive) | > 100 µM (inactive) | > 100 µM (inactive) | 96.6 µM (inactive) | > 100 µM (inactive) | > 100 µM (inactive) | > 100 µM (inactive)
O=C1c2ccccc2C2(Br)C(=O)c3ccccc3C12 (centres undefined) | > 100 µM (inactive) | > 100 µM (inactive) | > 100 µM (inactive) | > 100 µM (inactive) | > 100 µM (inactive) | > 100 µM (inactive) | > 100 µM (inactive) | > 100 µM (inactive) | > 100 µM (inactive) | > 100 µM (inactive) |  | > 100 µM (inactive) | > 100 µM (inactive) | > 100 µM (inactive) | > 100 µM (inactive) | > 100 µM (inactive) |  | 42.4 µM (inactive) | > 100 µM (inactive)
O=C1OC2CCCC[C@@H]2C2C[C@]34CCCCC3[C@@H](C(=O)O4)C12 (some centres undefined) | > 100 µM (inactive) | > 100 µM (inactive) | > 100 µM (inactive) | > 100 µM (inactive) | > 100 µM (inactive) | > 100 µM (inactive) | > 100 µM (inactive) | > 100 µM (inactive) | > 100 µM (inactive) | > 100 µM (inactive) |  | > 100 µM (inactive) | > 100 µM (inactive) | > 100 µM (inactive) | > 100 µM (inactive) | > 100 µM (inactive) | > 100 µM (inactive) | > 100 µM (inactive) | > 100 µM (inactive)
CSc1ccc2c(cc1=O)C(NC(=O)c1cc(O)c(OC(=O)O)c(O)c1)CCc1cc(O)c(O)c(O)c1-2 (centres undefined) | 20 µM (inactive) | 22.8 µM (inactive) | 12.1 µM (inactive) | 19.2 µM (inactive) | 5.87 µM (inactive) | > 8.99 µM (inactive) | 25.9 µM (inactive) | 19.8 µM (inactive) | 24.4 µM (inactive) | 32.7 µM (inactive) |  | 16 µM (inactive) | 14.7 µM (inactive) | 15.3 µM (inactive) | 19 µM (inactive) | 20.2 µM (inactive) | 36.1 µM (inactive) | 11.9 µM (inactive) | 12.2 µM (inactive)
COc1ccc(CSc2ccccc2Cn2cccc2)cc1OC | 82.8 µM (inactive) | 28.3 µM (inactive) |  | 10.9 µM (inactive) |  | > 100 µM (inactive) |  | > 100 µM (inactive) | > 100 µM (inactive) | > 100 µM (inactive) | 50.5 µM (inactive) | > 100 µM (inactive) | 71.6 µM (inactive) | 39.4 µM (inactive) | > 100 µM (inactive) | 39.8 µM (inactive) | 27.6 µM (inactive) | 50.5 µM (inactive) | 27 µM (inactive)
CCCC(=O)c1ccc(=O)n(C)c1 | > 100 µM (inactive) | > 100 µM (inactive) | > 100 µM (inactive) | > 100 µM (inactive) | > 100 µM (inactive) | > 100 µM (inactive) | > 100 µM (inactive) | > 100 µM (inactive) | > 100 µM (inactive) | > 100 µM (inactive) | > 100 µM (inactive) | > 100 µM (inactive) | > 100 µM (inactive) | > 100 µM (inactive) | > 100 µM (inactive) | > 100 µM (inactive) |  | > 100 µM (inactive) | > 100 µM (inactive)
